Results as given in ChEMBL document CHEMBL3621134, “Cyclic Peptides Incorporating Phosphotyrosine Mimetics as Potent and Specific Inhibitors of the Grb7 Breast Cancer Target” (J Med Chem, 2015).

Molecular target: T1, Growth factor receptor-bound protein 10 (Homo sapiens, UniProt Q13322)
T1 sequence (Q13322 whole entry): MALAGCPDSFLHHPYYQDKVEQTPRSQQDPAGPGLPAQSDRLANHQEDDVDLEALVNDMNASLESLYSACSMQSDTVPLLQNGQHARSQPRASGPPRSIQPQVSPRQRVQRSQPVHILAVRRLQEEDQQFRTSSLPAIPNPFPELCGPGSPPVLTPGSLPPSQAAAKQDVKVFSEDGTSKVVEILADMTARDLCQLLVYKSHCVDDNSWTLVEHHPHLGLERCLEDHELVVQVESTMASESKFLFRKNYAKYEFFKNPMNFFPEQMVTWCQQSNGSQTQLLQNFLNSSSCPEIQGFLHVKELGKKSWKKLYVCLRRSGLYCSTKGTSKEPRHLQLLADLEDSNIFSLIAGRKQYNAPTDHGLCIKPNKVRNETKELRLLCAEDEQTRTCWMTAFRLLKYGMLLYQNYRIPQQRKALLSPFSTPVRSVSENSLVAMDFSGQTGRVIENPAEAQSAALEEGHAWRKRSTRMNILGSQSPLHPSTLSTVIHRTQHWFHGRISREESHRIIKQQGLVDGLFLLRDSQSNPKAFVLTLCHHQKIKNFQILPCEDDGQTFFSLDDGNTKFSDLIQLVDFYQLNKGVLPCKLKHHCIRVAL
Test: Binding affinity to GST-tagged Grb10-SH2 domain (471 to 594 amino acid residues) (unknown origin) expressed in Escherichia coli BL21 (DE3) using 20 mM Tris/1 mM NaPO4 buffer by SPR analysis; call rule not given here

In the case of `C[C@@H](O)[C@@H]1NC(=O)[C@H](CC(N)=O)NC(=O)[C@H](CC(=O)O)NC(=O)[C@H](Cc2ccc(O)cc2)NC(=O)CNC(=O)[C@H](CCC(=O)O)NC(=O)[C@H](Cc2ccccc2)NC(=O)[C@H](Cc2c[nH]c3ccccc23)NC(=O)CSC[C@@H](C(N)=O)NC(=O)[C@@H]2CCCN2C(=O)[C@H](Cc2ccccc2)NC1=O`, the Kd is reported as “Not Active”.
